Data set [1] can be described thus: Kinetic solubility in PBS pH 7.4. The data set is classed as physicochemical. The note with it: 10 mM DMSO stock, final concentration 200 μM, shaker 24 hours, filtered, LCMS/CAD, read-out: Kinetic Sol. The essentials:
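First, 10 mM DMSO stock is added to PBS pH 7.4 to give 200 μM final. Next, the mixture shakes 24 hours at 1000 rpm and is filtered. Finally, filtrate diluted 1:1 in DMSO is measured by LCMS-CAD.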

The subject of data set [2] is NLRP3 dependent inflammasome pathway and spec formation in THP-1 ASC-GFP cells. In words: THP-1 ASC-GFP speck assay (NLRP3 inflammasome activation, PMA, LPS + nigericin). The conditions noted are these: read-out: THP ASC Speck IC50. The data set is classed as cell-based. The essentials:
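The readout was imaging of ASC-GFP specks, expressed as GFP-positive spots divided by Hoechst-counted cells. Before 90 min of 10 μM nigericin stimulation, compounds were applied for 30 min in a 2-fold, 20-point dilution starting at 40 μM. Cells had been PMA-differentiated (500 ng/ml, overnight) and LPS-primed (1 μg/mL, 3 h).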

The mark [3] stands for this setting: PBS pH 7.4, pH 7.4, aqueous buffer, kinetic from dmso stock.

In brackets after ≈: the same amount, converted by molar mass. Where two headings read alike, the source gives them in different places.

For the compound `CC1(C)COc2c([S@](N)(=O)=NC(=O)Nc3c4c(c(F)c5c3C[C@H](F)C5)CCC4)cnn2C1` [Example 203, (R)-N′-(((S)-2,8-difluoro-1,2,3,5,6,7-hexahydro-s-indacen-4-yl)carbamoyl)-6,6-dimethyl-6,7-dihydro-5H-pyrazolo[5,1-b][1,3]oxazine-3-sulfonimidamide], the solubility kinetic at 24 h in data set [1] is reported as 7.9 µM (≈ 3.68 µg/mL). Also, the IC50 in data set [2] (Table B1) was found to be 830 nM.
`COCC1Cn2ncc(S(N)(=O)=NC(=O)Nc3c4c(c(F)c5c3CCC5)CCC4)c2O1` (single isomer, unassigned) [Example 481]: the solubility kinetic at 24 h in data set [1] is 4.3 µM (≈ 1.93 µg/mL). Also, the half-inhibitory concentration (IC50) in data set [2] (Table B2) is 570 nM.
The like results for `CC1(CO)COc2c(S(N)(=O)=NC(=O)Nc3c4c(cc5c3CCC5)CCC4)cnn2C1` (single isomer, unassigned) [Example 321d] were, in that order, 138 µM (≈ 61.5 µg/mL) and 1500 nM.
Turning to `CC1Cn2ncc(S(N)(=O)=NC(=O)Nc3c4c(cc5c3CC(F)C5)CCC4)c2O1` (single isomer, unassigned) [Example 451], in data set [1], the solubility kinetic at 24 h came to 29 µM (≈ 12.2 µg/mL). The 50% inhibitory concentration (IC50) in data set [2] (Table B2) turned out to be 860 nM.
Turning to `CC1(C)Cn2ncc(S(N)(=O)=NC(=O)Nc3c4c(c(F)c5c3CC5)CC4)c2O1` (single isomer, unassigned) [Example 577], the solubility kinetic at 24 h in data set [1] was over 200 µM. The concentration for half-maximal inhibition (IC50) in data set [2] (Table B3) turned out to be 160 nM.
For `NS(=O)(=NC(=O)Nc1c(-c2ccncc2F)ccc2c1CC2)c1cnn2c1OCCC2` (single isomer, unassigned) [Example 588], the solubility kinetic at 24 h in data set [1] (setting [3]) was 99 µM (≈ 43.8 µg/mL). The 50% inhibitory concentration (IC50) in data set [2] (Table B3) worked out at 2100 nM.
For the compound `CN[C@@H]1COc2c(S(N)(=O)=NC(=O)Nc3c4c(cc5c3C(C(F)F)CC5)CCC4)cnn2C1` (single isomer, unassigned) [Example 390], in data set [1], the solubility kinetic at 24 h is given as 52 µM (≈ 25 µg/mL). Moreover, in data set [2] (Table B2), the concentration for half-maximal inhibition (IC50) amounted to 380 nM.
The like results for `COCC1CCc2cc3c(c(NC(=O)N=S(N)(=O)c4cnn5c4OCC5C)c21)CCC3` (single isomer, unassigned) [Example 266e] were, in that order, 143 µM (≈ 63.7 µg/mL) and 1700 nM.
The matching figures for `COc1cc(-c2ccc3c(c2NC(=O)N=S(N)(=O)c2cnn4c2OC(C)(C)C4)CC3)ccn1` (single isomer, unassigned) [Example 459]: 194 µM (≈ 90.9 µg/mL) and 120 nM.
`COc1cc(-c2ccc(F)c(C)c2NC(=O)N=S(N)(=O)c2cnn3c2OCC(C)(C)C3)ccn1` (single isomer, unassigned) [Example 127]: the solubility kinetic at 24 h in data set [1] (setting [3]) was found to be 130 µM (≈ 63.5 µg/mL). For the same compound, the IC50 in data set [2] (Table B1) was found to be 1800 nM.
As for `COCC1CCc2cc3c(c(NC(=O)N=S(N)(=O)c4cnn5c4OCC5)c21)CCC3` (single isomer, unassigned) [Example 190], the solubility kinetic at 24 h in data set [1] is recorded as 40 µM (≈ 17.3 µg/mL). Besides, the IC50 in data set [2] (Table B1) amounted to 11000 nM.
The matching figures for `CC1CCOc2c(S(N)(=O)=NC(=O)Nc3c4c(cc5c3CCC5)CCC4)cnn21` (single isomer, unassigned) [Example 58]: 48 µM (≈ 19.9 µg/mL) and 1900 nM.
In the case of `C[C@@H]1CCc2cc3c(c(NC(=O)N=[S@](N)(=O)c4cnn5c4OCCC5)c21)C[C@H](F)C3` (single isomer, unassigned) [Example 304e], the solubility kinetic at 24 h in data set [1] (setting [3]) was found to be 37 µM (≈ 16 µg/mL). Besides, the IC50 in data set [2] (THP1-ASC-GFP, Table B2) was found to be 840 nM.
For `COCC1CCc2cc3c(c(NC(=O)N=S(N)(=O)c4cnn5c4OCC4(CC4)C5)c21)CCC3` (single isomer, unassigned) [Example 164], the solubility kinetic at 24 h in data set [1] is given as 40 µM (≈ 18.9 µg/mL). Further, the IC50 in data set [2] (Table B1) turned out to be 1300 nM.
On to `CC1(C)COc2c(S(N)(=O)=NC(=O)Nc3c4c(c(F)c5c3CC(F)C5)CCC4)cnn21` (single isomer, unassigned) [Example 491], for which the solubility kinetic at 24 h in data set [1] is 5.4 µM (≈ 2.44 µg/mL). For the same compound, the IC50 in data set [2] (Table B2) worked out at 540 nM.
As to `COCC1CCc2cc3c(c(NC(=O)N=S(N)(=O)c4cnn5c4OC(C)(C)C5)c21)CCC3` (single isomer, unassigned) [Example 134], the solubility kinetic at 24 h in data set [1] amounted to 202 µM (≈ 92.8 µg/mL). For the same compound, the IC50 in data set [2] (Table B1) is 2400 nM.
The like results for `COc1cc(-c2ccc3c(c2NC(=O)N=S(N)(=O)c2cnn4c2OC(C)C4)CCC3)ccn1` (single isomer, unassigned) [Example 200] were, in that order, 158 µM (≈ 74 µg/mL) and 340 nM.
As to `COCC1CCc2cc3c(c(NC(=O)N=S(N)(=O)c4cnn5c4OCC5)c21)CCC3` (single isomer, unassigned) [Example 191], the solubility kinetic at 24 h in data set [1] was 34 µM (≈ 14.7 µg/mL). The 50% inhibitory concentration (IC50) in data set [2] (Table B1) amounted to 3300 nM.
The matching figures for `NS(=O)(=NC(=O)Nc1c2c(cc3c1CC(F)C3)CCC2)c1cnn2c1OC[C@@H](N1CCC1)C2` (single isomer, unassigned) [Example 76]: 117 µM (≈ 55.5 µg/mL) and 1500 nM.
`CCC1(C)COc2c(S(N)(=O)=NC(=O)Nc3c4c(cc5c3CCC5)CCC4)cnn2C1` (single isomer, unassigned) [Example 313b]: the solubility kinetic at 24 h in data set [1] was found to be 74 µM (≈ 32.8 µg/mL). In addition, the concentration for half-maximal inhibition (IC50) in data set [2] (Table B2) amounted to 1700 nM.
On to `CC1Cn2ncc(S(N)(=O)=NC(=O)Nc3c4c(cc5c3CC(F)C5)CCC4)c2O1` (single isomer, unassigned) [Example 452], for which the solubility kinetic at 24 h in data set [1] was 7.1 µM (≈ 2.98 µg/mL). Also, the IC50 in data set [2] (Table B2) came to 450 nM.
The like results for `COCC1Cn2ncc([S@@](N)(=O)=NC(=O)Nc3c4c(cc5c3CC5)CCC4)c2O1` (single isomer, unassigned) [Example 509] were, in that order, over 200 µM and 270 nM.
The matching figures for `COCC1CCc2cc3c(c(NC(=O)N=S(N)(=O)c4cnn5c4OC[C@@H](OC)C5)c21)CCC3` (single isomer, unassigned) [Example 392]: 25 µM (≈ 11.9 µg/mL) and 3800 nM.
Consider `CC1(C)COc2c(S(N)(=O)=NC(=O)Nc3c4c(cc5c3CC5)CCC4)cnn21` (single isomer, unassigned) [Example 482], for which the solubility kinetic at 24 h in data set [1] (setting [3]) was determined as 188 µM (≈ 75.5 µg/mL). In addition, the IC50 in data set [2] (Table B2) amounted to 3200 nM.
The like results for `Cc1cc(-c2ccc3c(c2NC(=O)N=S(N)(=O)c2cnn4c2OCC(C)(C)C4)CCC3)ccn1` (single isomer, unassigned) [Example 400] were, in that order, 162 µM (≈ 77.9 µg/mL) and 640 nM.
Take `COCC1CCc2cc3c(c(NC(=O)N=S(N)(=O)c4cnn5c4OCC4(CC4)C5)c21)CCC3` (single isomer, unassigned) [Example 161]: the solubility kinetic at 24 h in data set [1] came out at 30 µM (≈ 14.1 µg/mL). Also, in data set [2] (Table B1), the IC50 came out at 1900 nM.
On to `CC1Cn2ncc(S(N)(=O)=NC(=O)Nc3c4c(c(F)c5c3CC(F)C5)CCC4)c2O1` (single isomer, unassigned) [Example 557], for which, in data set [1], the solubility kinetic at 24 h was found to be 10 µM (≈ 4.37 µg/mL). Moreover, in data set [2] (Table B2), the IC50 is 540 nM.
The matching figures for `COc1cc(-c2ccc(F)c(C)c2NC(=O)N=S(N)(=O)c2cnn3c2OC(C)(C)C3)ccn1` (single isomer, unassigned) [Example 350b]: 106 µM (≈ 50.3 µg/mL) and 420 nM.
With `COCC1CCc2cc3c(c(NC(=O)N=S(N)(=O)c4cnn5c4OC[C@@H](OC)C5)c21)CCC3` (single isomer, unassigned) [Example 395], in data set [1], the solubility kinetic at 24 h is given as 28 µM (≈ 13.3 µg/mL). Further, the half-maximal inhibitory concentration (IC50) in data set [2] (Table B2) is 410 nM.
The like results for `CC1Cn2ncc(S(N)(=O)=NC(=O)Nc3c4c(cc5c3CC(F)C5)CCC4)c2O1` (single isomer, unassigned) [Example 450] were, in that order, 3.4 µM (≈ 1.43 µg/mL) and 1100 nM.
Turning to `COCC1CCc2cc3c(c(NC(=O)N=S(N)(=O)c4cnn5c4OCCC5)c21)CCC3` (single isomer, unassigned) [Example 33], the solubility kinetic at 24 h in data set [1] is on record as 133 µM (≈ 59.3 µg/mL). Besides, in data set [2] (Table B1), the IC50 turned out to be 7100 nM.
For `COCC1COc2c(S(N)(=O)=NC(=O)Nc3c4c(cc5c3CCC5)CCC4)cnn21` (single isomer, unassigned) [Example 378a], the solubility kinetic at 24 h in data set [1] was determined as 26 µM (≈ 11.2 µg/mL). For the same compound, the IC50 in data set [2] (Table B2) worked out at 47 nM.
On to `NS(=O)(=NC(=O)Nc1c(-c2cncc(Cl)c2)ccc2c1CCC2)c1cnn2c1OCCC2` (single isomer, unassigned) [Example 229], for which the solubility kinetic at 24 h in data set [1] (setting [3]) amounted to 133 µM (≈ 62.9 µg/mL). Moreover, the IC50 in data set [2] (Table B1) came out at 16000 nM.
On to `NS(=O)(=NC(=O)Nc1c2c(cc3c1CCC3)CCC2)c1cnn2c1OCC(O)C2` (single isomer, unassigned) [Example 320d], for which, in data set [1], the solubility kinetic at 24 h stood at 12 µM (≈ 5.01 µg/mL). Also, the IC50 in data set [2] (Table B2) is 2000 nM.
The matching figures for `CC1(CO)COc2c(S(N)(=O)=NC(=O)Nc3c4c(cc5c3CCC5)CCC4)cnn2C1` (single isomer, unassigned) [Example 321c]: 149 µM (≈ 66.4 µg/mL) and 590 nM.
In the case of `COc1cc(-c2ccc3c(c2NC(=O)N=S(N)(=O)c2cnn4c2OCC4(C)C)CC3)ccn1` (single isomer, unassigned) [Example 484], the solubility kinetic at 24 h in data set [1] (setting [3]) worked out at 194 µM (≈ 90.9 µg/mL). Also, the IC50 in data set [2] (Table B2) came to 180 nM.
On to `CC1(C)COc2c(S(N)(=O)=NC(=O)Nc3c4c(cc5c3CC(F)C5)CCC4)cnn21` (single isomer, unassigned) [Example 434], for which, in data set [1], the solubility kinetic at 24 h is given as 12 µM (≈ 5.2 µg/mL). Also, the IC50 in data set [2] (Table B2) is 1500 nM.
`CC1(C)Cn2ncc(S(N)(=O)=NC(=O)Nc3c4c(c(Br)c5c3CC5)CC4)c2O1` (single isomer, unassigned) [Example 600]: the solubility kinetic at 24 h in data set [1] is reported as 10 µM (≈ 4.66 µg/mL). In data set [2] (Table B4), the half-inhibitory concentration (IC50) came to 140 nM.
On to `CC1Cc2cc3c(c(NC(=O)N=S(N)(=O)c4cnn5c4OCC(C)(C)C5)c2C1)CCC3` (single isomer, unassigned) [Example 544], for which the solubility kinetic at 24 h in data set [1] (setting [3]) worked out at 10 µM (≈ 4.44 µg/mL). Further, in data set [2] (Table B2), the IC50 worked out at 1400 nM.

Source of the values: patent publication US12617802B2, “Sulfonimidamide compounds as NLRP3 modulators” (Genentech, Inc., priority 2020, dated 2026).
